According to US4309559A, “Sulphonamides useful as pesticides” (FBC Limited, priority 1977, dated 1982):

Legend:
Format in all cases: in vivo
[1] = tested on: Blackgrass (Alopecurus myosuroides); assay: Pre-emergence soil surface spray, blackgrass; conditions: soil surface spray 2.8 kg/ha, 21 days, 0=no effect, 100=complete kill
Source text: (§1) Seeds of the plant species listed below were sown in John Innes I potting compost in aluminium pans, 19 cm long×9.5 cm wide×5.0 cm high, one species per pan. The soil surface was then sprayed with a compound listed below, formulated as a solution in 1:1 by volume aqueous acetone except for the compound of Example 44 which was formulated as an aqueous suspension containing 1000 parts per million of the wetting agent Lissapol NX (nonylphenol/ethylene oxide condensate). Each compound was applied at a rate of 2.8 kg of active ingredient per hectare in 450 liters of spray liquid per hectare. The pans were then watered, and placed in a controlled environment room (22° C., relative humidity 65-85%, 14 hours per day artificial illumination at 17,000 lux) for 21 days. The plants were then visually assessed for any growth regulatory or herbicidal effects. All differences from an untreated control were scored on a scale from 0-100, where 0 signifies no effect and 100 signifies complete kill.

[2] = tested on: Barnyardgrass (Echinochloa crus-galli); assay: Post-emergence foliar spray of monocotyledons, barnyardgrass; conditions: foliar spray 2.8 kg/ha, 14 days, 0=no effect, 100=complete kill
Description: (§2) Seeds of the monocotyledon species listed below were sown in anodised aluminium pans, 19 cm long×9.5 cm wide×5.0 cm deep, containing John Innes I potting compost. They were then watered and placed in a controlled environment room (22° C.; 65-85% relative humidity; 14 hours per day artificial illumination at 17,000 lux). 14 days after sowing, the seedlings were given a foliar spray of the compound of Example 44, formulated as an aqueous suspension together with 2000 ppm of the wetting agent Lissapol NX. The dosage rate was adjusted to be 2.8 kg active ingredient in 450 liters per hectare. After a further 14 days in the controlled environment room, the plants were visually assessed for any growth regulatory or herbicidal effect. All differences from an untreated control were scored on a scale from 0-100 where 0 signifies no effect and 100 signifies complete kill.
(§3) The compounds listed below were tested according to the procedure of Example 66 but including rice (Oryza sativa) as an additional test species.

[3] = tested on: Ryegrass (Lolium perenne); assay: Soil incorporation (attaclay/sand dust), growth regulatory or herbicidal effects, ryegrass; conditions: 504 h, 21 days, 0=no effect, read-out: growth regulatory or herbicidal effect score; for pest or weed control at 26 µg/mL: soil incorporation 26 ppm, 100=complete kill
Procedure, shortened: (§4)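 Compounds formulated as attaclay/sand dust, incorporated into John Innes I compost at 26 ppm w/v (≈11.2 kg/ha) or 130 ppm w/v (≈56 kg/ha); seeds sown in treated soil, held 21 days at 22° C, 65-85% RH, 14 h light at 13,000 lux. Visual scoring versus untreated control, 0 (no effect) to 100 (complete kill).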

[4] = tested on: Linseed (Linum usitatissimum); assay: Soil incorporation (attaclay/sand dust), growth regulatory or herbicidal effects, linseed; conditions: 504 h, 21 days, 0=no effect, read-out: growth regulatory or herbicidal effect score; for pest or weed control at 26 µg/mL: soil incorporation 26 ppm, 100=complete kill
Procedure, shortened: as §4

Barley (Hordeum vulgare) [5] = assay: Pre-emergence soil surface spray, barley; conditions: soil surface spray 2.8 kg/ha, 21 days, 0=no effect, 100=complete kill
Source text: as §1

[6] = tested on: Wheat (Triticum aestivum); assay: Post-emergence foliar spray of monocotyledons, wheat; conditions: foliar spray 2.8 kg/ha, 14 days, 0=no effect, 100=complete kill
Description: as §2, §3

Mustard (Sinapis alba) [7] = assay: Soil incorporation (attaclay/sand dust), growth regulatory or herbicidal effects, mustard; conditions: 504 h, 21 days, 0=no effect, read-out: growth regulatory or herbicidal effect score; for pest or weed control at 26 µg/mL: soil incorporation 26 ppm, 100=complete kill
Procedure, shortened: as §4

[8] = tested on: Barnyardgrass (Echinochloa crus-galli); assay: Pre-emergence soil surface spray, barnyardgrass; conditions: soil surface spray 2.8 kg/ha, 21 days, 0=no effect, 100=complete kill
Source text: as §1

Barley (Hordeum vulgare) [9] = assay: Post-emergence foliar spray of monocotyledons, barley; conditions: foliar spray 2.8 kg/ha, 14 days, 0=no effect, 100=complete kill
Description: as §2, §3

[10] = tested on: Crabgrass (Digitaria sanguinalis); assay: Pre-emergence soil surface spray, crabgrass; conditions: soil surface spray 2.8 kg/ha, 21 days, 0=no effect, 100=complete kill
Source text: as §1

Rice (Orysae sotiva) = assay: Pre-emergence soil surface spray, rice; conditions: soil surface spray 2.8 kg/ha, 21 days, 0=no effect, 100=complete kill
Source text: as §1

Wild Oat (Avena fatua) = assay: Pre-emergence soil surface spray, wild oat; conditions: soil surface spray 2.8 kg/ha, 21 days, 0=no effect, 100=complete kill
Source text: as §1

Oats (Avena sativa) = assay: Soil incorporation (attaclay/sand dust), growth regulatory or herbicidal effects, oats; conditions: 504 h, 21 days, 0=no effect, read-out: growth regulatory or herbicidal effect score; for plant injury at 26 µg/mL: soil incorporation 26 ppm, 100=complete kill
Procedure, shortened: as §4

[11] = tested on: Wheat (Triticum aestivum); assay: Pre-emergence soil surface spray, wheat; conditions: soil surface spray 2.8 kg/ha, 21 days, 0=no effect, 100=complete kill
Source text: as §1

Maize (Zea mays) = assay: Soil incorporation (attaclay/sand dust), growth regulatory or herbicidal effects, maize; conditions: 504 h, 21 days, 0=no effect, read-out: growth regulatory or herbicidal effect score; for plant injury at 26 µg/mL: soil incorporation 26 ppm, 100=complete kill
Procedure, shortened: as §4

Peas (Pisum sativum) [12] = assay: Soil incorporation (attaclay/sand dust), growth regulatory or herbicidal effects, peas; conditions: Lathyrus oleraceus, 504 h, 21 days, 0=no effect, read-out: growth regulatory or herbicidal effect score; for pest or weed control at 26 µg/mL: soil incorporation 26 ppm, 100=complete kill
Procedure, shortened: as §4

Cotton = assay: Soil incorporation (I), cotton; conditions: I soil incorporation 6.5 ppm, 21 days, 0=no effect, 100=complete suppression
Source text: (§5) Each of the compounds listed below was formulated as: […]
(§6) (I) an attaclay/sand dust and incorporated in John Innes I potting compost at a rate equivalent to 6.5 and 3.25 parts per million weight/volume of active ingredient to soil and placed in anodised aluminium pans, 19 cm long×9.5 cm wide×5.0 cm high. This is approximately equivalent to a surface application of 2.8 and 1.4 kg active ingredient per hectare cultivated to a depth of 5 cm. Seeds of the species listed below were sown in the treated soil, one species per pan, watered and placed in a controlled environment room (22° C.; 65-85% relative humidity and 14 hours artificial illumination at 17,000 lux) for 21 days.
(§7) The plants were then visually assessed for any growth regulatory or herbicidal effects. All differences from an untreated control were scored on a scale from 0-100, where 0 signifies no effect and 100 signifies complete suppression.
(§8) The results are shown in the following table where I stands for soil incorporation and II for surface spray.

Chickweed = assay: Soil incorporation (I), chickweed; conditions: I soil incorporation 6.5 ppm, 21 days, 0=no effect, 100=complete suppression
Source text: as §5, §6, §7, §8

Peas (Pisum sativum) [13] = assay: Post-emergence foliar spray, herbicidal/growth regulant response, peas; conditions: Lathyrus oleraceus, 168 h, foliar spray 11.2 kg/ha, 7 days, 0=no effect, 100=complete kill, read-out: herbicidal or growth regulant response index
Procedure, shortened: (§9)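 Foliar spray, 14-day-old seedlings; 11.2 kg/ha in 450 L/ha, 1:1 aq. acetone. Controlled room 22° C., 65-85% RH, 14 h light (13,000 lux). Visual score vs untreated control at 7 d, 0–100 (100 = complete kill).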

[14] = tested on: Sugarbeet (Beta vulgaris); assay: Post-emergence foliar spray, herbicidal/growth regulant response, sugarbeet; conditions: 168 h, foliar spray 11.2 kg/ha, 7 days, 0=no effect, 100=complete kill, read-out: herbicidal or growth regulant response index
Procedure, shortened: as §9

Fathen = assay: Soil incorporation (I), fathen; conditions: I soil incorporation 6.5 ppm, 21 days, 0=no effect, 100=complete suppression
Source text: as §5, §6, §7, §8

[15] = tested on: Linseed (Linum usitatissimum); assay: Post-emergence foliar spray, herbicidal/growth regulant response, linseed; conditions: 168 h, foliar spray 11.2 kg/ha, 7 days, 0=no effect, 100=complete kill, read-out: herbicidal or growth regulant response index
Procedure, shortened: as §9

Tomato = assay: Soil incorporation (I), tomato; conditions: I soil incorporation 6.5 ppm, 21 days, 0=no effect, 100=complete suppression
Source text: as §5, §6, §7, §8

Mustard (Sinapis alba) [16] = assay: Post-emergence foliar spray, herbicidal/growth regulant response, mustard; conditions: 168 h, foliar spray 11.2 kg/ha, 7 days, 0=no effect, 100=complete kill, read-out: herbicidal or growth regulant response index
Procedure, shortened: as §9

Oat (Avena sativa) = assay: Post-emergence foliar spray, herbicidal/growth regulant response, oat; conditions: 168 h, foliar spray 11.2 kg/ha, 7 days, 0=no effect, 100=complete kill, read-out: herbicidal or growth regulant response index
Procedure, shortened: as §9

[17] = tested on: French beans (Phaseolus vulgaris); assay: Post-emergence foliar spray, herbicidal/growth regulant response, French beans; conditions: foliar spray 11.2 kg/ha, 7 days, 0=no effect, 100=complete kill
Description: Seeds of the plant species listed below were sown in anodised aluminium pans, 19 cm long×9.5 cm wide×5 cm deep, containing John Innes I potting compost. They were then watered and placed in a controlled environment room (22° C.; 65-85% relative humidity; 14 hours per day artificial illumination at 13,000 lux). Fourteen days after sowing, the seedlings received a foliar spray of a compound listed below, formulated as a solution in 1:1 by volume aqueous acetone. The concentration of active ingredient and volume of application were adjusted so as to be equivalent to a rate of 11.2 kg/ha in 450 liters per hectare. After seven days growth in the controlled environment room, the plants were visually assessed for any herbicidal or growth regulant response. All differences from the untreated control were scored according to an index where 0=no effect and 100=complete kill.
The product of Example 95 was tested according to the procedure of Examples 49-55.

Mustard = assay: Soil incorporation (I), mustard; conditions: I soil incorporation 6.5 ppm, 21 days, 0=no effect, 100=complete suppression
Source text: as §5, §6, §7, §8

Carrot = assay: Soil incorporation (I), carrot; conditions: I soil incorporation 6.5 ppm, 21 days, 0=no effect, 100=complete suppression
Source text: as §5, §6, §7, §8

[18] = tested on: Ryegrass (Lolium perenne); assay: Post-emergence foliar spray, herbicidal/growth regulant response, ryegrass; conditions: 168 h, foliar spray 11.2 kg/ha, 7 days, 0=no effect, 100=complete kill, read-out: herbicidal or growth regulant response index
Procedure, shortened: as §9

[19] = soil incorporation 130 ppm, 100=complete kill/suppression

## CS(=O)(=O)N(CC#N)c1ccc(Cl)c(Cl)c1 [Example 44, N-cyanomethyl-3,4-dichloro-methanesulphonanilide]
[1]
  growth regulatory or herbicidal effect score: 0
[2]
  growth regulatory or herbicidal effect score: 100
[3]
  pest or weed control at 26 µg/mL: 5%
[4]
  pest or weed control at 26 µg/mL: 20%
Barley (Hordeum vulgare) [5]
  growth regulatory or herbicidal effect score: 0
[6]
  growth regulatory or herbicidal effect score: 0
Mustard (Sinapis alba) [7]
  pest or weed control at 26 µg/mL: 40%
[8]
  growth regulatory or herbicidal effect score: 80
Barley (Hordeum vulgare) [9]
  growth regulatory or herbicidal effect score: 0
[10]
  growth regulatory or herbicidal effect score: 0
Rice (Orysae sotiva)
  growth regulatory or herbicidal effect score: 0
Wild Oat (Avena fatua)
  growth regulatory or herbicidal effect score: 0
Oats (Avena sativa)
  plant injury at 26 µg/mL: 60%
[11]
  growth regulatory or herbicidal effect score: 0
Maize (Zea mays)
  plant injury at 26 µg/mL: 5%
Peas (Pisum sativum) [12]
  pest or weed control at 26 µg/mL: 0%

## CCOC(=O)C(CC)N(c1c(C)cccc1C)S(C)(=O)=O (centres unmarked) [Example 95]
Cotton
  growth regulatory or herbicidal effect score: 5
Chickweed
  growth regulatory or herbicidal effect score: 90
Peas (Pisum sativum) [13]
  pest or weed control at 11200 g/ha: 15%
[14]
  plant injury at 11200 g/ha: 100%
[3]
  pest or weed control at 26 µg/mL: 90%
[3]; [19]
  pest or weed control at 130 µg/mL: 100%
[4]
  pest or weed control at 26 µg/mL: 0%
[4]; [19]
  pest or weed control at 130 µg/mL: 80%
Fathen
  growth regulatory or herbicidal effect score: 100
Mustard (Sinapis alba) [7]
  pest or weed control at 26 µg/mL: 90%
Mustard (Sinapis alba) [7]; [19]
  pest or weed control at 130 µg/mL: 100%
[15]
  pest or weed control at 11200 g/ha: 25%
Tomato
  growth regulatory or herbicidal effect score: 90
Mustard (Sinapis alba) [16]
  pest or weed control at 11200 g/ha: 100%
Oat (Avena sativa)
  plant injury at 11200 g/ha: 20%
[17]
  herbicidal or growth regulant response index: 100
Oats (Avena sativa)
  plant injury at 26 µg/mL: 0%
Oats (Avena sativa); [19]
  plant injury at 130 µg/mL: 100%
Maize (Zea mays)
  plant injury at 26 µg/mL: 50%
Maize (Zea mays); [19]
  plant injury at 130 µg/mL: 100%
Mustard
  growth regulatory or herbicidal effect score: 50
Peas (Pisum sativum) [12]
  pest or weed control at 26 µg/mL: 20%
Peas (Pisum sativum) [12]; [19]
  pest or weed control at 130 µg/mL: 30%
Carrot
  growth regulatory or herbicidal effect score: 0
[18]
  pest or weed control at 11200 g/ha: 15%
